The record followed here is ChEMBL document CHEMBL3045738, “Control of Greenhouse Whitefly (Trialeurodes vaporariorum) Using Visually Attractive Targets Impregnated with Pyriproxyfen” (J Pestic Sci, 2005).

Activity calls are given as the source filed them. No cut-off for these calls is given here.

The subject of assay [1] is Trialeurodes vaporariorum. The assay can be described thus: Insecticidal activity against Trialeurodes vaporariorum in bean plant leaf up to 50 days by glasshouse method. The class given is functional, organism-based.
The subject of assay [2] is Trialeurodes vaporariorum. Description: Insecticidal activity against Trialeurodes vaporariorum in ten-leaf stage of bean plant after 10 to 35 days. Type of assay: functional, organism-based.

As for `CC(COc1ccc(Oc2ccccc2)cc1)Oc1ccccn1` (racemic), the result in assay [1] and in assay [2] was Active.
